# According to patent US9174969B2, “Indoline scaffold SHP-2 inhibitors and cancer treatment method” (UNIVERSITY OF SOUTH FLORIDA, priority 2008, dated 2015):
# Target: Shp2 (Homo sapiens (Human), UniProt Q06124)
# Assay: in vitro phosphotyrosine phosphatase activity (DiFMUP) assay
# Type: biochemical
# Settings: mean ± spread over n tests
# Procedure: All reagents were purchased from commercial suppliers and used without further purification. Melting points were determined using a Barnstead international melting point apparatus and remain uncorrected. ^1H NMR spectra were recorded on a Varian Mercury 400 MHz spectrometer with CDCl3 or DMSO-d6 as the solvent. ^13C NMR spectra are recorded at 100 MHz. All coupling constants are measured in Hertz (Hz) and the chemical shifts (δH and δC) are quoted in parts per million (ppm) relative to TMS (δ0), which was used as the internal standard. High resolution mass spectroscopy was carried out on an Agilent 6210 LC/MS (ESI-TOF). Microwave reactions were performed in CEM 908005 model and Biotage initiator 8 machines. HPLC analysis was performed using a JASCO HPLC system equipped with a PU-2089 Plus quaternary gradient pump and a UV-2075 Plus UV-VIS detector, using an Alitech Kromasil C-18 column (150×4.6 mm, 5 μm). Thin layer chromatography was performed using silica gel 60 F254 plates (Fisher), with observation under UV when necessary. Anhydrous solvents (acetonitrile, dimethyl formamide, ethanol, isopropanol, methanol and tetrahydrofuran) were used as purchased from Aldrich. HPLC grade solvents (methanol, acetonitrile and water) were purchased from Burdick and Jackson for HPLC and mass analysis.
row,Compound,IC50
1,"O=C(O)C(O)CC(=O)N1CCc2cc(S(=O)(=O)N3CCN(c4cccc(Cl)c4)CC3)ccc21 (stereo not drawn) [JHE-02-001, 4-(5-(4-(3-Chlorophenyl)piperazin-1-ylsulfonyl)indolin-1-yl)-2-hydroxy-4-oxobutanoic acid]",1.1 ± 0.3 µM
2,"Cc1ccc(N2CCN(S(=O)(=O)c3ccc4c(c3)CCN4C(=O)CCC(=O)O)CC2)cc1Cl [XW3-006, 4-(5-(4-(3-Chloro-4-methylphenyl)piperazin-1-ylsulfonyl)indolin-1-yl)-4-oxobutanoic acid]",16.6 ± 3.6 µM
3,"CC1Cc2cc(S(=O)(=O)N3CCN(c4cccc(Cl)c4)CC3)ccc2N1C(=O)C(F)(F)F (stereo not drawn) [JHE-02-117, 1-(5-(4-(3-chlorophenyl)piperazin-1-ylsulfonyl)-2-methylindolin-1-yl)-2,2,2-trifluoroethanone]",47 ± 17.7 µM
4,"COc1cccc(NC(=O)N2CCc3cc(S(=O)(=O)N4CCN(c5cccc(Cl)c5)CC4)ccc32)c1 [JHE-02-032B, 5-(4-(3-Chlorophenyl)piperazin-1-ylsulfonyl)-N-(3-methoxyphenyl)indoline-1-carboxamide]",9.9 ± 3.5 µM
5,"O=C(O)CCCC(=O)N1CCc2cc(S(=O)(=O)N3CCN(c4cccc(Cl)c4)CC3)ccc21 [JHE-01-129B, 5-(5-(4-(3-Chlorophenyl)piperazin-1-ylsulfonyl)indolin-1-yl)-5-oxopentanoic acid]",2.8 ± 0.7 µM
6,"CCOC(=O)C(Cc1ccccc1)NC(=O)N1CCc2cc(S(=O)(=O)N3CCN(c4cccc(Cl)c4)CC3)ccc21 (stereo not drawn) [JHE-02-014, Ethyl 2-(5-(4-(3-chlorophenyl)piperazin-1-ylsulfonyl)indoline-1-carboxamido)-3-phenylpropanoate]",6.9 ± 4.2 µM
7,"O=C(O)CCC(=O)N1CCc2cc(S(=O)(=O)N3CCN(c4cccc(Cl)c4)CC3)ccc21 [XW2-038H, 4-(5-(4-(3-Chlorophenyl)piperazin-1-ylsulfonyl)indolin-1-yl)-4-oxobutanoic acid]",0.7 ± 0.3 µM
8,"O=C(O)CCC(=O)N1CCc2cc(S(=O)(=O)N3CCN(c4ccc(Cl)c(Cl)c4)CC3)ccc21 [XW2-036, 4-(5-(4-(3,4-Dichlorophenyl)piperazin-1-ylsulfonyl)indolin-1-yl)-4-oxobutanoic acid]",4.6 ± 2.4 µM
9,"O=C(Cc1ccc(Cl)cc1)N1CCc2cc(S(=O)(=O)N3CCN(c4cccc(Cl)c4)CC3)ccc21 [JHE-02-063B, 2-(4-Chlorophenyl)-1-(5-(4-(3-chlorophenyl)piperazin-1-ylsulfonyl)indolin-1-yl)ethanone]",8 ± 1.9 µM
10,"O=C(C1CC1)N1CCc2cc(S(=O)(=O)N3CCN(c4cccc(Cl)c4)CC3)ccc21 [JF027, (5-(4-(3-Chlorophenyl)piperazin-1-ylsulfonyl)indolin-1-yl)(cyclopropyl)methanone]",8.5 ± 2 µM
11,"O=C(O)CCC(=O)N1CCc2cc(S(=O)(=O)N3CCN(c4cccc(C(F)(F)F)c4)CC3)ccc21 [XW2-031B, 4-oxo-4-(5-(4-(3-(trifluoromethyl)phenyl)piperazin-1-ylsulfonyl)indolin-1-yl)butanoic acid]",11.3 ± 3.1 µM
12,"O=C(O)C1CC=CCC1C(=O)N1CCc2cc(S(=O)(=O)N3CCN(c4cccc(Cl)c4)CC3)ccc21 (stereo not drawn) [JHE-02-007, 6-(5-(4-(3-Chlorophenyl)piperazin-1-ylsulfonyl)indoline-1-carbonyl)cyclohex-3-enecarboxylic acid]",20.3 ± 4.3 µM
13,"Cc1ccc(Cl)cc1N1CCN(S(=O)(=O)c2ccc3c(c2)CCN3C(=O)CCC(=O)O)CC1 [XW2-125B, 4-(5-(4-(5-Chloro-2-methylphenyl)piperazin-1-ylsulfonyl)indolin-1-yl)-4-oxobutanoic acid]",1.5 µM
14,"CC(NC(=O)N1CCc2cc(S(=O)(=O)N3CCN(c4cccc(Cl)c4)CC3)ccc21)C(=O)O (stereo not drawn) [JHE-02-017B, 2-(5-(4-(3-Chlorophenyl)piperazin-1-ylsulfonyl)indoline-1-carboxamido)propanoic acid]",6.4 ± 0.5 µM
15,"O=C(Nc1cccc(F)c1)N1CCc2cc(S(=O)(=O)N3CCN(c4cccc(Cl)c4)CC3)ccc21 [JF039, 5-(4-(3-Chlorophenyl)piperazin-1-ylsulfonyl)-N-(3-fluorophenyl)indoline-1-carboxamide]",8.1 ± 1.7 µM
16,"COc1ccc(N2CCN(S(=O)(=O)c3ccc4c(c3)CCN4C(=O)CCC(=O)O)CC2)cc1 [XW2-038E, 4-(5-(4-(4-Methoxyphenyl)piperazin-1-ylsulfonyl)indolin-1-yl)-4-oxobutanoic acid]",9 ± 5.9 µM
17,"O=C(O)CCC(=O)N1CCc2cc(S(=O)(=O)N3CCN(c4ccc(F)cc4)CC3)ccc21 [XW2-011B, 4-(5-(4-(4-Fluorophenyl)piperazin-1-ylsulfonyl)indolin-1-yl)-4-oxobutanoic acid]",31.9 ± 10 µM
18,"O=C(c1ccc(Cl)cc1)N1CCc2cc(S(=O)(=O)N3CCN(c4cccc(Cl)c4)CC3)ccc21 [JF021, (4-Chlorophenyl)(5-(4-(3-chlorophenyl)piperazin-1-ylsulfonyl)indolin-1-yl)methanone]",10.4 ± 2 µM

row,Compound,IC50
1,"CC(C)CC(=O)N1CCc2cc(S(=O)(=O)N3CCN(c4cccc(Cl)c4)CC3)ccc21 [JHE-02-033B, 1-(5-(4-(3-Chlorophenyl)piperazin-1-ylsulfonyl)indolin-1-yl)-3-methylbutan-1-one]",20.7 ± 10.8 µM
2,O=C(O)C(O)CC(=O)N1CCc2cc(S(=O)(=O)N3CCN(c4cccc(Cl)c4)CC3)ccc21 (stereo not drawn) [JHE-02-067],1.3 ± 0.5 µM
3,"CCOC(=O)C(C)NC(=O)N1CCc2cc(S(=O)(=O)N3CCN(c4cccc(Cl)c4)CC3)ccc21 (stereo not drawn) [JHE-02-010B, Ethyl 2-(5-(4-(3-chlorophenyl)piperazin-1-ylsulfonyl)indoline-1-carboxamido)propanoate]",5.1 ± 2.7 µM
4,"O=C(Nc1ccccc1C(F)(F)F)N1CCc2cc(S(=O)(=O)N3CCN(c4cccc(Cl)c4)CC3)ccc21 [JF040, 5-(4-(3-Chlorophenyl)piperazin-1-ylsulfonyl)-N-(2-(trifluoromethyl)phenyl)indoline-1-carboxamide]",9 ± 1.7 µM
5,"O=C(O)CNC(=O)N1CCc2cc(S(=O)(=O)N3CCN(c4cccc(Cl)c4)CC3)ccc21 [JHE-01-137, 2-(5-(4-(3-Chlorophenyl)piperazin-1-ylsulfonyl)indoline-1-carboxamido)acetic acid]",4.6 ± 0.3 µM
6,"CCOC(=O)C(CC(C)C)NC(=O)N1CCc2cc(S(=O)(=O)N3CCN(c4cccc(Cl)c4)CC3)ccc21 (stereo not drawn) [JHE-02-012, Ethyl 2-(5-(4-(3-chlorophenyl)piperazin-1-ylsulfonyl)indoline-1-carboxamido)-4-methylpentanoate]",6 ± 2.8 µM
7,"O=C(O)CCC(=O)N1CCc2cc(S(=O)(=O)N3CCN(c4cccc(F)c4)CC3)ccc21 [XW2-124A, 4-(5-(4-(3-Fluorophenyl)piperazin-1-ylsulfonyl)indolin-1-yl)-4-oxobutanoic acid]",13.2 ± 3.6 µM
8,"CCOC(=O)CNC(=O)N1CCc2cc(S(=O)(=O)N3CCN(c4cccc(Cl)c4)CC3)ccc21 [JHE-01-134A, ethyl 2-(5-(4-(3-Chlorophenyl)piperazin-1-ylsulfonyl)indoline-1-carboxamido)acetate]",60.3 µM
9,"O=C(Nc1ccccc1F)N1CCc2cc(S(=O)(=O)N3CCN(c4cccc(Cl)c4)CC3)ccc21 [JF035, 5-(4-(3-Chlorophenyl)piperazin-1-ylsulfonyl)-N-(2-fluorophenyl)indoline-1-carboxamide]",12.2 ± 2 µM
10,"CCCC(=O)N1CCc2cc(S(=O)(=O)N3CCN(c4cccc(Cl)c4)CC3)ccc21 [JHE-02-033A, 1-(5-(4-(3-Chlorophenyl)piperazin-1-ylsulfonyl)indolin-1-yl)butan-1-one]",7.8 ± 2.1 µM
11,"O=C(O)CCC(=O)N1CCc2cc(S(=O)(=O)N3CCN(c4ccccc4F)CC3)ccc21 [XW2-038D, 4-(5-(4-(2-Fluorophenyl)piperazin-1-ylsulfonyl)indolin-1-yl)-4-oxobutanoic acid]",34.6 ± 12.6 µM
12,"O=C(O)c1ccccc1NC(=O)N1CCc2cc(S(=O)(=O)N3CCN(c4cccc(Cl)c4)CC3)ccc21 [JHE-02-020A, 2-(5-(4-(3-Chlorophenyl)piperazin-1-ylsulfonyl)indoline-1-carboxamido)benzoic acid]",8.3 ± 5.6 µM
13,"O=C(O)CCC(=O)N1CCc2cc(S(=O)(=O)N3CCN(c4ccccc4)CC3)ccc21 [XW2-038A, 4-oxo-4-(5-(4-Phenylpiperazin-1-ylsulfonyl)indolin-1-yl)butanoic acid]",14.8 ± 7.3 µM
14,"O=C(O)CCC(=O)N1CCc2cc(S(=O)(=O)N3CCN(c4cc(Cl)cc(Cl)c4)CC3)ccc21 [XW2-124B, 4-(5-(4-(3,5-Dichlorophenyl)piperazin-1-ylsulfonyl)indolin-1-yl)-4-oxobutanoic acid]",4.5 ± 1.2 µM
15,"O=C(O)CCC(=O)N1CCc2cc(S(=O)(=O)N3CCN(c4cc(C(F)(F)F)cc(C(F)(F)F)c4)CC3)ccc21 [XW2-119, 4-(5-(4-(3,5-Bis(trifluoromethyl)phenyl)piperazin-1-ylsulfonyl)indolin-1-yl)-4-oxobutanoic acid]",9.1 ± 1.6 µM
16,"O=C(Nc1ccc(Cl)cc1)N1CCc2cc(S(=O)(=O)N3CCN(c4cccc(Cl)c4)CC3)ccc21 [JHE-02-065A, N-(4-Chlorophenyl)-5-(4-(3-chlorophenyl)piperazin-1-ylsulfonyl)indoline-1-carboxamide]",19.1 ± 5.1 µM
17,"O=C(C1CCCC1)N1CCc2cc(S(=O)(=O)N3CCN(c4cccc(Cl)c4)CC3)ccc21 [JF026, (5-(4-(3-Chlorophenyl)piperazin-1-ylsulfonyl)indolin-1-yl)(cyclopentyl)methanone]",6.9 ± 2.2 µM
18,"4-(6-(4-(3-Chlorophenyl)piperazin-1-ylsulfonyl)-3,4-dihydroquinolin-1(2H)-yl)-4-oxobutanoic acid [JHE-02-023]",37.3 ± 5.3 µM
